Structures can show the parent of a compound that is named as a salt.
biological target: T1, α1G T-type calcium channel (Homo sapiens, UniProt O43497); assay: Assay for % inhibiting activity against T-type calcium channel using FDSS6000; type: cell-based; settings: 10 μM; HEK293 cells expressing α1G; Table 3 (Chemical Formula 2 series); hydrochloride
T1 construct: host or cells: HEK293
Method: In the present invention, in order to search an efficient inhibitor against T-type calcium channel, a primary assay for T-type calcium channel inhibiting activity was conducted by a high-efficient assay using FDSS6000, wherein mammal HEK293 cell lines (originated from human kidney carcinoma cells) which specifically expresses α1G of T-type calcium channel was used for primary assay. Through the primary assay, compounds which show meaningful inhibition effects were selected. The selected compounds were used in a second assay for T-type calcium channel inhibiting activity using electrophysiological whole cell patch clamp method, wherein mammal HEK293 cell lines (originated from human kidney carcinoma cells) which specifically expresses α1G of T-type calcium channel was used for the second assay.
At 12-24 hours before being used for this assay, cells of HEK293 cell line (α1G cell line: KCTC 10519BP, Korean Collection for Type Cultures), which stably express α1G T-type calcium channel and Kir2.1, were sub-cultured in a poly-L-lysine treated 96-well plate with the density of 4×10^4 per a well using a 96-well cell dispenser (Titertek). On the of assay, the 96-well plate to which the cells were attached were washed three times with HEPES buffer solution (150 mM of NaCl, 5 mM of KCl, 1 mM of MgCl2, 2 mM of CaCl2, 10 mM of HEPES, 10 mM of glucose; pH 7.4) using a 96-well plate automatic washing device (Bio Tek), then reacted with HEPES buffer solution containing 5 μM fluo-3/AM and 0.001% Pluronic F-127 under room temperature for 1 hour, to label with fluorescent dye, and then further washed two times with HEPES buffer solution.
Thereafter, at 10 minutes before the measurement using device FDSS6000, a washing with HEPES buffer solution containing 10 mM CaCl2 was conducted once more, and the final volume was adjusted to 81 μl. Besides the above 96-well plate containing the cells, additional two drug 96-well plates were provided, wherein the 96-well plates contain inhibiting drug and KCl (final concentration: 75 mM) for activating T-type calcium channel, respectively. Since most of cell-based HTS devices are equipped with a liquid application system for injection of drug, but have no liquid sucking system, the inhibiting drug to be tested and KCl were respectively provided at the five-times higher concentration in 10 mM CaCl2 HEPES buffer solution at the amount of 27 μl, diluted five-times at the final cell plate volume of 135 μl, and then used in this test. The concrete method of measurement using FDSS6000 was as follows: After recording the reference value of 20 seconds, the change of intracellular Ca^2+ concentration which induced by treatment of the inhibiting drug to be tested for 75 seconds followed by administration of KCl was measured, wherein the percentage (%) inhibition effect of the test drug, through estimating the area of ratio value of 340/380 in the control without treatment of the test drug as 100%. As a reference drug, mibefradil was used.
For accurate calcium-imagination, the light source of 4 xenon lamps in FDSS6000 were radiated to make the cells exposed selectively to the excitation wavelength (340 nm and 380 nm) by computer-controlled filter wheel. Data was obtained at interval of each 1.23 second. The emitter fluorescence light inflowed through long-pass filter was obtained as an average 340/380 ratio value for each well in the 96-wells by using CCD camera and digital fluorescence analyzer in FDSS6000. All image data and analyses were obtained by using FDSS6000-exclusive program provide from Hamamatsu Photonics.

T1 sequence (O43497 whole entry): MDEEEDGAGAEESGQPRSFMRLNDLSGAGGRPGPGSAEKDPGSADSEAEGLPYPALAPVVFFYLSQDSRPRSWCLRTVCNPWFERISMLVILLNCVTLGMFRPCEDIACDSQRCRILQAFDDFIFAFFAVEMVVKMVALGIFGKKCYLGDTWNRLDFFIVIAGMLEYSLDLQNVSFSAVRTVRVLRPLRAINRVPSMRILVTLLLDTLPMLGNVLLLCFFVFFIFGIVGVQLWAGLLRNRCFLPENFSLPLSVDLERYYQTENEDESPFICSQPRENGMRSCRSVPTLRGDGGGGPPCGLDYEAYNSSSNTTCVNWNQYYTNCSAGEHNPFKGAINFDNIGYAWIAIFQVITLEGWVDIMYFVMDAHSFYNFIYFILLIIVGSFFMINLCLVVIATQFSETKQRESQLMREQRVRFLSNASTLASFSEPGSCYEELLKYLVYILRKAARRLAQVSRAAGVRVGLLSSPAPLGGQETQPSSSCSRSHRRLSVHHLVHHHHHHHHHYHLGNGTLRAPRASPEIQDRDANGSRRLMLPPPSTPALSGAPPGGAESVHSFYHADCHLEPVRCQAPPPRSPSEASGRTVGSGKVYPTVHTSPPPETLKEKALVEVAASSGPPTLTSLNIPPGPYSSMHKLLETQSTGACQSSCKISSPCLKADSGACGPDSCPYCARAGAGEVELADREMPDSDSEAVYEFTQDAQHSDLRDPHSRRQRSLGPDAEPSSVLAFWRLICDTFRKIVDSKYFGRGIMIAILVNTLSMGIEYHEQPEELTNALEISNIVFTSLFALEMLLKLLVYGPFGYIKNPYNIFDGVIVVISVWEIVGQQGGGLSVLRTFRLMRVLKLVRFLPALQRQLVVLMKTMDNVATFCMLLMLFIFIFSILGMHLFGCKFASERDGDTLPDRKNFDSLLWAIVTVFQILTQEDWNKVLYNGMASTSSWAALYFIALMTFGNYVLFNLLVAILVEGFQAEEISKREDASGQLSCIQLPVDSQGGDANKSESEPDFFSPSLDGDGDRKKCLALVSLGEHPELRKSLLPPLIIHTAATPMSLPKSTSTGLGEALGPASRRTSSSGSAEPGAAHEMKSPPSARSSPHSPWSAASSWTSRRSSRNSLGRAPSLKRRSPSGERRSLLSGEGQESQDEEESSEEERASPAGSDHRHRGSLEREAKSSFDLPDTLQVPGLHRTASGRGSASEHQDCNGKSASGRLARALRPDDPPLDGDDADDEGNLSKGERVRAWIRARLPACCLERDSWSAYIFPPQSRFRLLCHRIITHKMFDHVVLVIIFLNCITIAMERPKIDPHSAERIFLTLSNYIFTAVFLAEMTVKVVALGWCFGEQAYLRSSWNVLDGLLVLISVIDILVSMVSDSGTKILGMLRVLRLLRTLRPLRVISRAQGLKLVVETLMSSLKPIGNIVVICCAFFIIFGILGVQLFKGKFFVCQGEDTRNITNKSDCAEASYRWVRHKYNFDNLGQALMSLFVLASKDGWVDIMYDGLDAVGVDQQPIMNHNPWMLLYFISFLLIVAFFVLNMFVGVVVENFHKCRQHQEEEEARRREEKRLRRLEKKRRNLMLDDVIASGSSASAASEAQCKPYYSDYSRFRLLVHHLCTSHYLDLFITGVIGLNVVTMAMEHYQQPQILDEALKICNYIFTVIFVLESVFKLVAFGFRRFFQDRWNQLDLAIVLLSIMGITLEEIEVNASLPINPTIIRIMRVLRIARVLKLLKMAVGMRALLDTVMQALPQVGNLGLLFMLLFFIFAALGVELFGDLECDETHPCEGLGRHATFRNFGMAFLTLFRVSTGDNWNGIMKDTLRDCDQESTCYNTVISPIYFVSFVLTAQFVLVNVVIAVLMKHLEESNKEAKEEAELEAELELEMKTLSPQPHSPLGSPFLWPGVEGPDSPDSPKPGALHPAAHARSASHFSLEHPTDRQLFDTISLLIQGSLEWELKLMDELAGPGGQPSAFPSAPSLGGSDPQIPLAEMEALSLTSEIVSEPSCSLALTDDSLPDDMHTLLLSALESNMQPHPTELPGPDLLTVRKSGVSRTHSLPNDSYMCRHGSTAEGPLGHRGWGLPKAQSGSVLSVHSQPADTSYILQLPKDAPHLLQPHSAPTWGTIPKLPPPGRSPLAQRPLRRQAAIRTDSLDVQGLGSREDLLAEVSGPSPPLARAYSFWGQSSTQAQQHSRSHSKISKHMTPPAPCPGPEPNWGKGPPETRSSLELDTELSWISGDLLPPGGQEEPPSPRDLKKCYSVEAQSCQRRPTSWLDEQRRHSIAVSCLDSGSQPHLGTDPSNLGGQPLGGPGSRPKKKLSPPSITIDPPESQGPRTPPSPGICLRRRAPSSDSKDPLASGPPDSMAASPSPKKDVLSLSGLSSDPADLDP

| Compound | % Inhibition [α1G, 10 μM) using FDSS6000 |
| --- | --- |
| Cc1ccc(NC(=O)Cc2csc(N=C(N)N)n2)cc1Cl.Cl [KHG23170, N-(3-chloro-4-methylphenyl)-2-(2-(diaminomethyleneamino)thiazole-4-yl)acetamide hydrochloride] | 30.68% |
| CCCCCCc1ccc(NC(=O)Cc2csc(N=C(N)N)n2)cc1.Cl [KHG23386, 2-(2-(diaminomethyleneamino)thiazole-4-yl)-N-(4-hexylphenyl)acetamide hydrochloride] | 4.5% |
| Cc1ccc(NC(=O)Cc2csc(N=C(N)N)n2)cc1Cl.Cl [KHG23397, N-(3-chloro-4-methylphenyl)-2-(2-(diaminomethyleneamino)thiazole-4-yl)acetamide hydrochloride] | 14.2% |
| COc1ccc(NC(=O)Cc2csc(N=C(N)N)n2)cc1F.Cl [KHG23399, 2-(2-(diaminomethyleneamino)thiazole-4-yl)-N-(3-fluoro-4-methoxyphenyl)acetamide hydrochloride] | 3.4% |

same assay, conditions: 10 μM; HEK293 cells expressing α1G; Table 4 (Chemical Formula 3 series); hydrobromide

| Compound | % Inhibition [α1G, 10 μM) using FDSS6000 |
| --- | --- |
| Br.NC(N)=Nc1nc(-c2ccc([N+](=O)[O-])cc2)cs1 [KHG24375, 2-(4-(4-nitrophenyl)thiazole-2-yl)guanidine hydrobromide] | 19.90% |

same assay, conditions: HEK293, 10 μM; HEK293 cells expressing α1G; Table 3 (Chemical Formula 2 series)

| Compound | inhibition at 10 µM |
| --- | --- |
| NC(N)=Nc1nc(CC(=O)Nc2cc([N+](=O)[O-])ccc2F)cs1 [KHG23168, 2-(2-(diaminomethyleneamino)thiazole-4-yl)-N-(2-fluoro-5-nitrophenyl)acetamide hydrochloride] | 21.6% |
| Cl.NC(N)=Nc1nc(CC(=O)Nc2ccc(F)cc2Cl)cs1 [KHG23169, N-(2-chloro-4-fluorophenyl)-2-(2-(diaminomethyleneamino)thiazole-4-yl)acetamide hydrochloride] | 23.2% |
| Cl.NC(N)=Nc1nc(CC(=O)Nc2ccc(F)cc2)cs1 [KHG23171, 2-(2-(diaminomethyleneamino)thiazole-4-yl)-N-(4-fluorophenyl)acetamide hydrochloride] | 21.5% |
| Cl.NC(N)=Nc1nc(CC(=O)Nc2cc(Cl)ccc2F)cs1 [KHG23172, N-(5-chloro-2-fluorophenyl)-2-(2-(diaminomethyleneamino)thiazole-4-yl)acetamide hydrochloride] | 27.6% |
| NC(N)=Nc1nc(CC(=O)NCCc2ccc(F)cc2)cs1 [KHG23190, 2-(2-(diaminomethyleneamino)thiazole-4-yl)-N-(4-fluorophenethyl)acetamide hydrochloride] | 21% |
| CC(C)c1ccc(NC(=O)Cc2csc(N=C(N)N)n2)cc1 [KHG23379, 2-(2-(diaminomethyleneamino)thiazole-4-yl)-N-(4-isopropylphenyl)acetamide hydrochloride] | 14.7% |
| NC(N)=Nc1nc(CC(=O)Nc2ccc([N+](=O)[O-])cc2)cs1 [KHG23380, 2-(2-(diaminomethyleneamino)thiazole-4-yl)-N-(4-nitrophenyl)acetamide hydrochloride] | 11.4% |
| CCCCCCCCCCc1ccc(NC(=O)Cc2csc(N=C(N)N)n2)cc1 [KHG23381, N-(4-decylphenyl)-2-(2-(diaminomethyleneamino)thiazole-4-yl)acetamide hydrochloride] | 6.2% |
| CCOC(=O)c1cccc(NC(=O)Cc2csc(N=C(N)N)n2)c1 [KHG23382, ethyl 3-(2-(2-(diaminomethyleneamino)thiazole-4-yl)acetamido)benzoate hydrochloride] | 24% |
| CCCCCCc1ccc(NC(=O)Cc2csc(N=C(N)N)n2)cc1 [KHG23383, 2-(2-(diaminomethyleneamino)thiazole-4-yl)-N-(4-hexylphenyl)acetamide hydrochloride] | 5.7% |
| CCCCOc1ccc(NC(=O)Cc2csc(N=C(N)N)n2)cc1 [KHG23384, N-(4-butoxyphenyl)-2-(2-(diaminomethyleneamino)thiazole-4-yl)acetamide hydrochloride] | 6.1% |
| CCOC(=O)c1ccc(NC(=O)Cc2csc(N=C(N)N)n2)cc1 [KHG23385, ethyl 4-(2-(2-(diaminomethyleneamino)thiazole-4-yl)acetamido)benzoate hydrochloride] | 5.9% |
| N#CCc1ccc(NC(=O)Cc2csc(N=C(N)N)n2)cc1 [KHG23387, N-(4-(cyanomethyl)phenyl)-2-(2-(diaminomethyleneamino)thiazole-4-yl)acetamide hydrochloride] | 3.2% |
| NC(N)=Nc1nc(CC(=O)Nc2ccc(Oc3ccccc3)cc2)cs1 [KHG23389, 2-(2-(diaminomethyleneamino)thiazole-4-yl)-N-(4-phenoxyphenyl)acetamide hydrochloride] | 25.4% |
| NC(N)=Nc1nc(CC(=O)Nc2c(Cl)cc(C(F)(F)F)cc2Cl)cs1 [KHG23391, 2-(2-(diaminomethyleneamino)thiazole-4-yl)-N-(2,6-dichloro-4-(trifluoromethyl)phenyl)acetamide hydrochloride] | 0.8% |
| NC(N)=Nc1nc(CC(=O)Nc2ccc(F)c(F)c2F)cs1 [KHG23392, 2-(2-(diaminomethyleneamino)thiazole-4-yl)-N-(2,3,4-trifluorophenyl)acetamide hydrochloride] | 22.7% |
| COc1ccc(NC(=O)Cc2csc(N=C(N)N)n2)c(C)c1 [KHG23393, 2-(2-(diaminomethyleneamino)thiazole-4-yl)-N-(4-methoxy-2-methylphenyl)acetamide hydrochloride] | 3.8% |
| NC(N)=Nc1nc(CC(=O)Nc2cc(C(F)(F)F)cc(C(F)(F)F)c2)cs1 [KHG23394, N-(3,5-bis(trifluoromethyl)phenyl)-2-(2-(diaminomethyleneamino)thiazole-4-yl)acetamide hydrochloride] | 41.5% |
| NC(N)=Nc1nc(CC(=O)Nc2c(Cl)c(Cl)cc(Cl)c2Cl)cs1 [KHG23395, 2-(2-(diaminomethyleneamino)thiazole-4-yl)-N-(2,3,5,6-tetrachlorophenyl)acetamide hydrochloride] | 2.7% |
| NC(N)=Nc1nc(CC(=O)Nc2c(Cl)cc(OC(F)(F)F)cc2Cl)cs1 [KHG23398, 2-(2-(diaminomethyleneamino)thiazole-4-yl)-N-(2,6-dichloro-4-(trifluoromethoxy)phenyl)acetamide hydrochloride] | 0.2% |

same assay, conditions: HEK293, 10 μM; HEK293 cells expressing α1G; Table 4 (Chemical Formula 3 series)

| Compound | inhibition at 10 µM |
| --- | --- |
| NC(N)=Nc1nc(-c2ccc3[nH]c(=O)oc3c2)cs1 [KHG24022, 2-(4-(2-oxo-2,3-dihydrobenzo[d]oxazole-6-yl)thiazole-2-yl)guanidine hydrochloride] | 10.1% |
| NC(N)=Nc1nc(-c2ccc3ccccc3c2)cs1 [KHG24039, 2-(4-(naphthalene-2-yl)thiazole-2-yl)guanidine hydrochloride] | 21.9% |
| Cc1ccc(-c2csc(N=C(N)N)n2)cc1 [KHG24040, 2-(4-p-tolylthiazole-2-yl)guanidine hydrobromide] | 16.2% |
| COc1ccc(-c2csc(N=C(N)N)n2)cc1 [KHG24041, 2-(4-(4-methoxyphenyl)thiazole-2-yl)guanidine hydrobromide] | 13.3% |
| NC(N)=Nc1nc(-c2ccc([N+](=O)[O-])cc2)cs1 [KHG24389, 2-(4-(4-nitrophenyl)thiazole-2-yl)guanidine hydrobromide] | 21.9% |
| NC(N)=Nc1nc(-c2cc(C(F)(F)F)cc(C(F)(F)F)c2)cs1 [KHG24392, 2-(4-(3,5-bis(trifluoromethyl)phenyl)thiazole-2-yl)guanidine hydrobromide] | 12.9% |

tested on: not given; assay: not given; settings: not given

| Compound | melting point |
| --- | --- |
| Cc1nc(N=C(N)N)sc1Cc1ccc(F)cc1.Cl | 245.6 °C |
| Cl.NC(N)=Nc1nc(CC(=O)Nc2ccc(F)cc2Cl)cs1 [KHG23169, N-(2-chloro-4-fluorophenyl)-2-(2-(diaminomethyleneamino)thiazole-4-yl)acetamide hydrochloride] | 232.8 to 233.9 °C |
| Cc1ccc(NC(=O)Cc2csc(N=C(N)N)n2)cc1Cl.Cl [KHG23170, N-(3-chloro-4-methylphenyl)-2-(2-(diaminomethyleneamino)thiazole-4-yl)acetamide hydrochloride] | 238.6 to 240.4 °C |
| Cl.NC(N)=Nc1nc(CC(=O)Nc2ccc(F)cc2)cs1 [KHG23171, 2-(2-(diaminomethyleneamino)thiazole-4-yl)-N-(4-fluorophenyl)acetamide hydrochloride] | 207.3 to 208.2 °C |
| Cl.NC(N)=Nc1nc(CC(=O)Nc2cc(Cl)ccc2F)cs1 [KHG23172, N-(5-chloro-2-fluorophenyl)-2-(2-(diaminomethyleneamino)thiazole-4-yl)acetamide hydrochloride] | 209.3 to 210 °C |
